Assay results: patent US10308643B2, “Heterocyclic compound” (Takeda Pharmaceutical Company Limited, priority 2015, dated 2019)

Experiments:
Assay type in all cases: biochemical
[1] = target: T1, HDAC6 enzyme (Homo sapiens, UniProt Q9UBN7); assay: HDAC1/6 Enzyme Inhibitory Assay (HDAC-Glo I/II Assay kit), HDAC6; details: 1 μM test compound, wells without enzyme = 100% inhibition; for inhibition at 1 µM: read-out: HDAC6 inhibitory rate (%) (1 μM)
T1 construct: transducing full length HDAC1 and HDAC6 genes into Sf-9 insect cells; GST; purchased SignalChem; host or cells: Sf-9 insect cells
T1 sequence (Q9UBN7 1-1215): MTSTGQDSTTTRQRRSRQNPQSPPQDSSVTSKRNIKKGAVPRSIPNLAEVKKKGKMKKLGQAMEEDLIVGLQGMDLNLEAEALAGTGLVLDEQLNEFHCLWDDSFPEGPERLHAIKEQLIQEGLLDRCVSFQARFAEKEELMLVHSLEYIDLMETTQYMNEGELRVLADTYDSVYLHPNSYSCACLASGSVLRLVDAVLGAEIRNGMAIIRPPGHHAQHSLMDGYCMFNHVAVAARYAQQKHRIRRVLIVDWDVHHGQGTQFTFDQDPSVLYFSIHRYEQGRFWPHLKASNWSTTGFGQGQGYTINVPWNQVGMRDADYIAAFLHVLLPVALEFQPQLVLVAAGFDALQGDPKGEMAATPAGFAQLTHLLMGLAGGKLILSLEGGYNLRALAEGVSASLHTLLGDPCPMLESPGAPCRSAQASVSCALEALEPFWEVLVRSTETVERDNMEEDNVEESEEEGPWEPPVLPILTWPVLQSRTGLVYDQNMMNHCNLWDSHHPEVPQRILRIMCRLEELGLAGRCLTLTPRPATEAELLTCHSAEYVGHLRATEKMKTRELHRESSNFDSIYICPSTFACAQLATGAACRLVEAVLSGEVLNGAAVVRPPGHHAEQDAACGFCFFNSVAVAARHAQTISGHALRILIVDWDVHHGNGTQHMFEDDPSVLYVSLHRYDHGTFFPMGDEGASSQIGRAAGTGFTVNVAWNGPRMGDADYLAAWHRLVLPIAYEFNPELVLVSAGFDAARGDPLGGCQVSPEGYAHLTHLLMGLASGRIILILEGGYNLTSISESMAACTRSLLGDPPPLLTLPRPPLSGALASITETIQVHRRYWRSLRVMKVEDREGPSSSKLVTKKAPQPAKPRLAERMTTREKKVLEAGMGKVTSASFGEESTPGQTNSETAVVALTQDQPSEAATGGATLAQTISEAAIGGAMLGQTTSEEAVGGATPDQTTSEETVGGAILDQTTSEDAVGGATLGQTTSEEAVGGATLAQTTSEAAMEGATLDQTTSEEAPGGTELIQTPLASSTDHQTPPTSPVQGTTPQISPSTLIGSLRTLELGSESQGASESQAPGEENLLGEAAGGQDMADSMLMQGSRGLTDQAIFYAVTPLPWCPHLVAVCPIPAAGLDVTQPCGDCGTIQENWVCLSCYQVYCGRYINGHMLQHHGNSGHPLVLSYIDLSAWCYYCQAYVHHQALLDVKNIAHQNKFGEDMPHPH
Method: (§1) HDAC1/6 Enzyme Inhibitory Assay
(§2) HDAC1 enzyme and HDAC6 enzyme each prepared by transducing full length HDAC1 and HDAC6 genes into Sf-9 insect cells and purifying by GST affinity column were purchased from SignalChem. Using these enzymes, HDAC1 and/or HDAC6 enzyme inhibitory activities of the compound of the present invention were evaluated. Enzymes were used after preserved at −70° C. HDAC1 or HDAC6 enzyme inhibitory activity of the compound of the present invention was measured using HDAC-Glo™ I/II Assay kit (Promega) according to the following experimental method. The test compound diluted with assay buffer (24 mM Tris-HCl (pH 7.5), 1 mM MgCl2, 0.35 mM KCl, 135 mM NaCl, 0.6 mM Glutathione, 0.01% Tween-20) was added to a 384-well plate by each 2 μL. Then, HDAC1 or HDAC6 enzyme solution diluted with assay buffer was added thereto by each 4 μL, and the plate was incubated at room temperature for 60 min. After incubated, HDAC substrate-Developer solution prepared according to Promega protocol attached to the assay kit was added to the 384-well plate by each 2 μL, and the enzyme reaction was started. After reacting at room temperature for 20 min, luminescence level was measured using plate reader Envision (PerkinElmer). The inhibitory activity of each compound was calculated as a relative activity value when luminescence level in wells without enzyme is considered as 100% inhibition.

[2] = target: T2, HDAC9 enzyme (Homo sapiens, UniProt Q9UKV0); assay: HDAC9 Enzyme Inhibitory Assay (HDAC-Glo class IIa); details: 1 μM test compound, wells without enzyme = 100% inhibition; for inhibition at 1 µM: read-out: HDAC9 inhibitory rate (%) (1 μM)
T2 construct: transducing full length HDAC9 gene into Sf-9 insect cells; made in house; host or cells: Sf-9 insect cells
Method: HDAC9 Enzyme Inhibitory Assay
Enzyme was prepared by transducing full length HDAC9 gene into Sf-9 insect cells and purifying by Ni-NTA affinity column, and HDAC9 enzyme inhibitory activity was evaluated. Enzymes were used after preserved at −70° C. HDAC9 enzyme inhibitory activity of the test compound was measured using HDAC-Glo class IIa (Promega) according to the following experimental method. The test compound diluted with assay buffer (24 mM Tris-HCl (pH 7.5), 1 mM MgCl2, 0.35 mM KCl, 135 mM NaCl, 0.6 mM Glutathione, 0.01% Tween-20) was added to a 384-well plate by each 2 μL. Then, HDAC9 enzyme solution diluted with assay buffer was added thereto by each 2 μL, and the plate was incubated at room temperature for 60 min. After incubated, HDAC substrate-Developer solution prepared according to Promega protocol was added to the 384-well plate by each 4 μL, and the enzyme reaction was started. After reacting at room temperature for 20 min, luminescence level was measured using plate reader Envision (PerkinElmer). The inhibitory activity of each compound was calculated as a relative activity value when luminescence level in wells without enzyme is considered as 100% inhibition.

[3] = target: T3, HDAC1 enzyme (Homo sapiens, UniProt Q13547); assay: HDAC1/6 Enzyme Inhibitory Assay (HDAC-Glo I/II Assay kit), HDAC1; details: 1 μM test compound, wells without enzyme = 100% inhibition; for inhibition at 1 µM: read-out: HDAC1 inhibitory rate (%) (1 μM)
T3 construct: transducing full length HDAC1 and HDAC6 genes into Sf-9 insect cells; GST; purchased SignalChem; host or cells: Sf-9 insect cells
Method: as §1, §2

T2 sequence (Q9UKV0 whole entry, species assumed): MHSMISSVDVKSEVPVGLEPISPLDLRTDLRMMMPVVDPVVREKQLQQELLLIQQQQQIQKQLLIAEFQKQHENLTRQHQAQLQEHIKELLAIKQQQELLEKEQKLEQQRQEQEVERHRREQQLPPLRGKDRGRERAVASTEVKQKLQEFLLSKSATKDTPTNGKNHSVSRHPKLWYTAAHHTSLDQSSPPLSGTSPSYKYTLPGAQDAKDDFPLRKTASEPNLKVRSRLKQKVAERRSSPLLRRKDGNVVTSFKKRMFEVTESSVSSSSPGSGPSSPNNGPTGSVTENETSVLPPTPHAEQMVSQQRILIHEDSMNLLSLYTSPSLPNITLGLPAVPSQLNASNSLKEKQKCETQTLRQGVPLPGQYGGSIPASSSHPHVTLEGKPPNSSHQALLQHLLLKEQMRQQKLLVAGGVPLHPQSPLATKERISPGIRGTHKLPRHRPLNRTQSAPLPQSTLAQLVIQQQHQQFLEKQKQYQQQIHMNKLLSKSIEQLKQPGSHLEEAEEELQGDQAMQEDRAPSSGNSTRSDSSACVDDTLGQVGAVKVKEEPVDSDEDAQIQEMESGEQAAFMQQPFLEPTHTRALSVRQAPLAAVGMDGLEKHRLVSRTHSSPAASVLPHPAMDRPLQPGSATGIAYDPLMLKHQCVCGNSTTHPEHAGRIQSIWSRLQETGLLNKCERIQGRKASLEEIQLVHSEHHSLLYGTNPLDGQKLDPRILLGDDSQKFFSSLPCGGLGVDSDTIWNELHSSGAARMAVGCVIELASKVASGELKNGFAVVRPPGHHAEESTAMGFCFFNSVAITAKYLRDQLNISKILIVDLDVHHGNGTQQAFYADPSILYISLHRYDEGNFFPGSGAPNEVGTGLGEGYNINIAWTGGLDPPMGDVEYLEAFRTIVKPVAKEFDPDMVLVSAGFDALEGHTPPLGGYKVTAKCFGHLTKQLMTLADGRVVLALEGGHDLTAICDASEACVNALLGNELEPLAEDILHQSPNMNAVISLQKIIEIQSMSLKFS
T3 sequence (Q13547 whole entry): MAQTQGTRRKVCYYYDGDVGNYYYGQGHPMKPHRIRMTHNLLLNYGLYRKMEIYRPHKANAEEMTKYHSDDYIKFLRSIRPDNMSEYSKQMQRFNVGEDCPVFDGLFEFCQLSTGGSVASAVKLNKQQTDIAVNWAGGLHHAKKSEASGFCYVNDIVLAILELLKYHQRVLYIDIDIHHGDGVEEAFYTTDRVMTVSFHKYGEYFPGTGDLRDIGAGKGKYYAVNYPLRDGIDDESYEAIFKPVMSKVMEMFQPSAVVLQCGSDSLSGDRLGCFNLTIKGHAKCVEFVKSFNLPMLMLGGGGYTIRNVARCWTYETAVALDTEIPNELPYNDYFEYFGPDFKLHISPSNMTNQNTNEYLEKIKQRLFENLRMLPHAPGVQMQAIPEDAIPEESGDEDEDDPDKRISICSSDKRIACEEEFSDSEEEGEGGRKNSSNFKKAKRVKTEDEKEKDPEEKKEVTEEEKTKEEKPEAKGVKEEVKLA

| SMILES | inhibition at 1 µM [1] [%] | inhibition at 1 µM [2] [%] | HDAC1 inhibitory rate (%) (1 μM) [3] | HDAC6 inhibitory rate (%) (1 μM) [1] | HDAC9 inhibitory rate (%) (1 μM) ([2]; 1 µM) | inhibition at 1 µM [3] [%] |
| --- | --- | --- | --- | --- | --- | --- |
| O=C1c2cc(-c3noc(C(F)(F)F)n3)ccc2CN1[C@@H]1CCOC[C@H]1c1ccccc1 (relative stereo) [Example 34, trans-2-(3-phenyltetrahydro-2H-pyran-4-yl)-6-(5-(trifluoromethyl)-1,2,4-oxadiazol-3-yl)isoindolin-1-one] | 99 | 96 | 90 |  |  |  |
| O=C1c2cc(-c3noc(C(F)(F)F)n3)ccc2CN1[C@@H]1CCOC[C@H]1c1ccccc1 (relative stereo) [Example 35, trans-2-(3-phenyltetrahydro-2H-pyran-4-yl)-6-(5-(trifluoromethyl)-1,2,4-oxadiazol-3-yl)isoindolin-1-one] |  |  | 50 | 99 | 91 |  |
| O=C1c2cc(-c3noc(C(F)(F)F)n3)ccc2CN1[C@@H]1CCNC[C@H]1c1ccc(F)cc1 (relative stereo) [Example 45, 2-(trans-3-(4-fluorophenyl)piperidin-4-yl)-6-(5-(trifluoromethyl)-1,2,4-oxadiazol-3-yl)isoindolin-1-one] | 100 | 99 |  |  |  | 94 |
| O=C1c2cc(-c3noc(C(F)(F)F)n3)ccc2CN1[C@@H]1CCNC[C@H]1c1ccc(F)c(F)c1 (relative stereo) [Example 46, 2-(trans-3-(3,4-difluorophenyl)piperidin-4-yl)-6-(5-(trifluoromethyl)-1,2,4-oxadiazol-3-yl)isoindolin-1-one] | 99 | 99 |  |  |  | 94 |
| Cc1ccc([C@@H]2CNCC[C@H]2N2Cc3ccc(-c4noc(C(F)(F)F)n4)cc3C2=O)cc1 (relative stereo) [Example 47, 2-(trans-3-(4-methylphenyl)piperidin-4-yl)-6-(5-(trifluoromethyl)-1,2,4-oxadiazol-3-yl)isoindolin-1-one] | 95 | 99 |  |  |  | 90 |
| Cc1ccc([C@@H]2CNCC[C@H]2N2Cc3ccc(-c4noc(C(F)(F)F)n4)cc3C2=O)cc1F (relative stereo) [Example 48, 2-(trans-3-(3-fluoro-4-methylphenyl)piperidin-4-yl)-6-(5-(trifluoromethyl)-1,2,4-oxadiazol-3-yl)isoindolin-1-one] | 99 | 98 |  |  |  | 90 |
| Cc1cc([C@@H]2CNCC[C@H]2N2Cc3ccc(-c4noc(C(F)(F)F)n4)cc3C2=O)ccc1F (relative stereo) [Example 49, 2-(trans-3-(4-fluoro-3-methylphenyl)piperidin-4-yl)-6-(5-(trifluoromethyl)-1,2,4-oxadiazol-3-yl)isoindolin-1-one] | 100 | 99 |  |  |  | 96 |
| Cc1cc(F)ccc1[C@@H]1CNCC[C@H]1N1Cc2ccc(-c3noc(C(F)(F)F)n3)cc2C1=O (relative stereo) [Example 50, 2-(trans-3-(4-fluoro-2-methylphenyl)piperidin-4-yl)-6-(5-(trifluoromethyl)-1,2,4-oxadiazol-3-yl)isoindolin-1-one] | 98 | 99 |  |  |  | 93 |
| O=C1c2cc(-c3noc(C(F)(F)F)n3)ccc2CN1[C@@H]1CCNC[C@H]1c1ccc(Cl)c(F)c1 (relative stereo) [Example 52, 2-(trans-3-(4-chloro-3-fluorophenyl)piperidin-4-yl)-6-(5-(trifluoromethyl)-1,2,4-oxadiazol-3-yl)isoindolin-1-one] | 97 | 99 |  |  |  | 97 |
| O=C1c2cc(-c3noc(C(F)(F)F)n3)ccc2CN1[C@@H]1CCNC[C@H]1c1cccc(Cl)c1 (relative stereo) [Example 53, 2-(trans-3-(3-chlorophenyl)piperidin-4-yl)-6-(5-(trifluoromethyl)-1,2,4-oxadiazol-3-yl)isoindolin-1-one] | 97 | 99 |  |  |  | 98 |
| O=C1c2cc(-c3noc(C(F)(F)F)n3)ccc2CN1[C@@H]1CCNC[C@H]1c1ccc(F)c(Cl)c1 (relative stereo) [Example 54, 2-(trans-3-(3-chloro-4-fluorophenyl)piperidin-4-yl)-6-(5-(trifluoromethyl)-1,2,4-oxadiazol-3-yl)isoindolin-1-one] | 100 | 99 |  |  |  | 93 |
| COc1ccc([C@@H]2CNCC[C@H]2N2Cc3ccc(-c4noc(C(F)(F)F)n4)cc3C2=O)cc1 (relative stereo) [Example 55, 2-(trans-3-(4-methoxyphenyl)piperidin-4-yl)-6-(5-(trifluoromethyl)-1,2,4-oxadiazol-3-yl)isoindolin-1-one] | 96 | 99 |  |  |  | 95 |
| Cc1ccc([C@@H]2CNCC[C@H]2N2Cc3ccc(-c4noc(C(F)(F)F)n4)cc3C2=O)cc1Cl (relative stereo) [Example 56, 2-(trans-3-(3-chloro-4-methylphenyl)piperidin-4-yl)-6-(5-(trifluoromethyl)-1,2,4-oxadiazol-3-yl)isoindolin-1-one] | 97 | 99 |  |  |  | 93 |
| Cc1cc([C@@H]2CNCC[C@H]2N2Cc3ccc(-c4noc(C(F)(F)F)n4)cc3C2=O)ccc1Cl (relative stereo) [Example 57, 2-(trans-3-(4-chloro-3-methylphenyl)piperidin-4-yl)-6-(5-(trifluoromethyl)-1,2,4-oxadiazol-3-yl)isoindolin-1-one] | 94 | 99 |  |  |  | 93 |
| O=C1c2cc(-c3noc(C(F)(F)F)n3)ccc2CN1[C@H]1CCCC[C@@H]1N1CCOCC1 (relative stereo) [Example 59, 2-(trans-2-(morpholin-4-yl)cyclohexyl)-6-(5-(trifluoromethyl)-1,2,4-oxadiazol-3-yl)isoindolin-1-one] | 97 | 91 |  |  |  | 60 |
